According to paper PMC8887546, “Design and Synthesis of Brain Penetrant Glycopeptide Analogues of PACAP With Neuroprotective Potential for Traumatic Brain Injury and Parkinsonism” (Frontiers in drug discovery, 2022):

Tests used:
Type in all cases: cell-based
human PAC1 receptor = target: T1, human PAC1 receptor (Homo sapiens, UniProt P41586); assay: cAMP stimulation in CHO cells expressing PAC1; conditions: for Emax: CHO
T1 construct: expressed in transfected cells; host or cells: CHO cells (G418 selection)
T1 sequence (P41586 21-468): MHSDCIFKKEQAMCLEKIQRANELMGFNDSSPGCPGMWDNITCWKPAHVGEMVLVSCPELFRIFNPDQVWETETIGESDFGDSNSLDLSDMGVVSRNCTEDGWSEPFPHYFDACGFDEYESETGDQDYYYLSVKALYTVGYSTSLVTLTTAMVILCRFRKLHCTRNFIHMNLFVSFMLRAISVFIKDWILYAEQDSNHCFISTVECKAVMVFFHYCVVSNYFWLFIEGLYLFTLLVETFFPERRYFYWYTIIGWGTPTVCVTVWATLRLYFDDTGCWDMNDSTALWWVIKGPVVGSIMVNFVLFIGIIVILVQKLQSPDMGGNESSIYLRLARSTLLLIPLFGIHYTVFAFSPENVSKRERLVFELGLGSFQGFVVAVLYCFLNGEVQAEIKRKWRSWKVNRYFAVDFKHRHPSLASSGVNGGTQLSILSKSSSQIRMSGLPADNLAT
Description: (§1) Briefly, human PAC1, VPAC1, and VPAC2 receptors expressed in CHO cells were used for all experiments. Cells were grown in 50:50 DMEM-F12 medium with 10% heat-inactivated fetal bovine serum, 1X penicillin-streptomycin supplement, and 500 μg/ml G418 (neomycin) to maintain selection (all from ThermoFisher) at 37°C with 5% CO2 atmosphere. For the cAMP assay, cells were seeded at 20,000 cells/well in a 96 well plate, recovered overnight, then serum starved for 4 h. The cells were then incubated with 500 μM IBMX for 20 min, followed by agonist concentration curves in 500 μM IBMX media for 10 min. The reaction was terminated, boiled, then collected, followed by competition with 7 μg of bovine protein kinase A (Sigma-Aldrich) and ∼1 pmol of ^3H-cAMP (PerkinElmer). The assay was incubated at room temp for 1 h, then collected onto GF/B filter plates and the data read using a MicroBeta2 scintillation counter (PerkinElmer).

human VPAC1 receptor = target: T2, human VPAC1 receptor (Homo sapiens, UniProt P32241); assay: cAMP stimulation in CHO cells expressing VPAC1; conditions: for Emax: CHO, read-out: VPAC1 Emax; for Receptor selectivity ratio VPAC1/PAC1: ratio of cAMP EC50 values; for EC50: read-out: VPAC1 EC50
T2 construct: expressed in transfected cells; host or cells: CHO cells (G418 selection)
T2 sequence (P32241 31-457): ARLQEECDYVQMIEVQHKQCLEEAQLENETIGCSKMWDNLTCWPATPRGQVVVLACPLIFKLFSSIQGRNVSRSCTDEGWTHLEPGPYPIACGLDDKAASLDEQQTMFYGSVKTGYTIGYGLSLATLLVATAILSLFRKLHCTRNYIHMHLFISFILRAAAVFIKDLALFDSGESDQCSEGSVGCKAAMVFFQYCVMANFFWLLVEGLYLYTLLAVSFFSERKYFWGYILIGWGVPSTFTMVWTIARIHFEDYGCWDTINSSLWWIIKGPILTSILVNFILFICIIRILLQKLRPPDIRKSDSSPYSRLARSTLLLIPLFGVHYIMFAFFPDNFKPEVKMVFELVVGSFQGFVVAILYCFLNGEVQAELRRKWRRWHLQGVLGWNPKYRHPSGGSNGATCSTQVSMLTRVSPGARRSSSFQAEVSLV

human VPAC2 receptor = target: T3, human VPAC2 receptor (Homo sapiens, UniProt P41587); assay: cAMP stimulation in CHO cells expressing VPAC2; conditions: for Emax: CHO; for Receptor selectivity ratio VPAC2/PAC1 / Receptor selectivity ratio VPAC2/VPAC1: ratio of cAMP EC50 values
T3 construct: expressed in transfected cells; host or cells: CHO cells (G418 selection)
T3 sequence (P41587 24-438): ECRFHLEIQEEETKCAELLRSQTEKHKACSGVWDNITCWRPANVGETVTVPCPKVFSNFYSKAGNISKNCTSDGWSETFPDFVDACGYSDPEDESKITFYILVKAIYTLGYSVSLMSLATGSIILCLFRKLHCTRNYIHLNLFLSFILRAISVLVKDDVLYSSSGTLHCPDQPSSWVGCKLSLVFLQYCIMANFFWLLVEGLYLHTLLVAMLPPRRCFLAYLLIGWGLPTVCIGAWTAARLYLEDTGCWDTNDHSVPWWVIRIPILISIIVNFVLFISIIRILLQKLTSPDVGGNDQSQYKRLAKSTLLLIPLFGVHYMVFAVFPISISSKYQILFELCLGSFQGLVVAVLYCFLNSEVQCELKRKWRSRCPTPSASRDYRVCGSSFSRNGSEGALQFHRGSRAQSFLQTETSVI
Description: as §1

EC50 (human PAC1 receptor) [nM] | Emax (human PAC1 receptor) [%] | Emax (human VPAC1 receptor) [%] | Receptor selectivity ratio VPAC1/PAC1 (human VPAC1 receptor) | EC50 (human VPAC1 receptor) [nM] | EC50 (human VPAC2 receptor) [nM] | Emax (human VPAC2 receptor) [%] | Receptor selectivity ratio VPAC2/PAC1 (human VPAC2 receptor) | Receptor selectivity ratio VPAC2/VPAC1 (human VPAC2 receptor) | Selectivity for VPAC1 over PAC1 (human VPAC1 receptor; from cAMP EC50 values) [fold] | SMILES
159 | 76 | 108 | 1.27 | 202 | 737 | 65 | 4.64 | 3.65 |  | CCC[C@H](NC(=O)[C@H](CCC(N)=O)NC(=O)[C@H](CCCCN)NC(=O)[C@H](CCCNC(=N)N)NC(=O)[C@H](Cc1ccc(O)cc1)NC(=O)[C@H](CCCNC(=N)N)NC(=O)[C@H](CO)NC(=O)[C@H](Cc1ccc(O)cc1)NC(=O)[C@H](CO)NC(=O)[C@H](CC(=O)O)NC(=O)[C@@H](NC(=O)[C@H](Cc1ccccc1)NC(=O)[C@@H](NC(=O)CCNC(=O)[C@H](CC(=O)O)NC(=O)[C@@H](CO)NC(=O)[C@@H](N)Cc1c[nH]cn1)[C@@H](C)CC)[C@@H](C)O)C(=O)N[C@@H](C)C(=O)N[C@H](C(=O)N[C@@H](CCCCN)C(=O)N[C@@H](CCCCN)C(=O)N[C@@H](Cc1ccc(O)cc1)C(=O)N[C@@H](CC(C)C)C(=O)N[C@@H](C)C(=O)N[C@@H](C)C(=O)N[C@H](C(=O)N[C@@H](CC(C)C)C(=O)N[C@@H](CO[C@@H]1O[C@H](CO)[C@@H](O)[C@H](O)[C@H]1O)C(N)=O)C(C)C)C(C)C [CRA3008]
> 250 | -79 | 93 |  | 5.9 | > 2500 |  |  |  |  | CCC[C@H](NC(=O)[C@H](CCC(N)=O)NC(=O)[C@H](CCCCN)NC(=O)[C@H](CCCNC(=N)N)NC(=O)[C@H](Cc1ccc(O)cc1)NC(=O)[C@H](CCCNC(=N)N)NC(=O)[C@H](CO)NC(=O)[C@H](Cc1ccc(O)cc1)NC(=O)[C@H](CO)NC(=O)[C@H](CC(=O)O)NC(=O)[C@@H](NC(=O)[C@H](Cc1ccccc1)NC(=O)[C@@H](NC(=O)CNC(=O)[C@H](CC(=O)O)NC(=O)[C@@H](CO)NC(=O)[C@@H](N)Cc1c[nH]cn1)[C@@H](C)CC)[C@@H](C)O)C(=O)N[C@@H](C)C(=O)N[C@H](C(=O)N[C@@H](CCCCN)C(=O)N[C@@H](CCCCN)C(=O)N[C@@H](Cc1ccc(O)cc1)C(=O)N[C@@H](CC(C)C)C(=O)N[C@@H](C)C(=O)N[C@@H](C)C(=O)N[C@@H](CO[C@@H]1O[C@H](CO)[C@@H](O)[C@H](O)[C@H]1O)C(=O)N[C@@H](CC(C)C)C(N)=O)C(C)C [CRA3002]
 | 85 | 104 |  |  |  | 112 |  |  |  | CCCC[C@H](NC(=O)CN(C)C(=O)[C@H](CC(=O)O)NC(=O)[C@@H](CO)NC(=O)[C@@H](N)Cc1c[nH]cn1)C(=O)N[C@@H](Cc1ccccc1)C(=O)N[C@H](C(=O)N[C@@H](CC(=O)O)C(=O)N[C@@H](CO)C(=O)N[C@@H](Cc1ccc(O)cc1)C(=O)N[C@@H](CO)C(=O)N[C@@H](CCCNC(=N)N)C(=O)N[C@@H](Cc1ccc(O)cc1)C(=O)N[C@@H](CCCNC(=N)N)C(=O)N[C@@H](CCCCN)C(=O)N[C@@H](CCC(N)=O)C(=O)N[C@@H](CCC)C(=O)N[C@@H](C)C(=O)N[C@H](C(=O)N[C@@H](CCCCN)C(=O)N[C@@H](CCCCN)C(=O)N[C@@H](Cc1ccc(O)cc1)C(=O)N[C@@H](CC(C)C)C(=O)N[C@@H](C)C(=O)N[C@@H](C)C(=O)N[C@H](C(=O)N[C@@H](CC(C)C)C(=O)N[C@@H](CO[C@@H]1O[C@H](CO)[C@@H](O)[C@H](O)[C@H]1O)C(N)=O)C(C)C)C(C)C)[C@@H](C)O [CRA3018]
205 | 79 | 122 | 0.64 | 132 | 2650 | 122 | 12.95 | 20.11 |  | CCC[C@H](NC(=O)[C@H](CCC(N)=O)NC(=O)[C@H](CCCCN)NC(=O)[C@H](CCCNC(=N)N)NC(=O)[C@H](Cc1ccc(O)cc1)NC(=O)[C@H](CCCNC(=N)N)NC(=O)[C@H](CO)NC(=O)[C@H](Cc1ccc(O)cc1)NC(=O)[C@H](CO)NC(=O)[C@H](CC(=O)O)NC(=O)[C@@H](NC(=O)[C@H](Cc1ccccc1)NC(=O)[C@H](C)NC(=O)CNC(=O)[C@H](CC(=O)O)NC(=O)[C@@H](CO)NC(=O)[C@@H](N)Cc1c[nH]cn1)[C@@H](C)O)C(=O)N[C@@H](C)C(=O)N[C@H](C(=O)N[C@@H](CCCCN)C(=O)N[C@@H](CCCCN)C(=O)N[C@@H](Cc1ccc(O)cc1)C(=O)N[C@@H](CC(C)C)C(=O)N[C@@H](C)C(=O)N[C@@H](C)C(=O)N[C@H](C(=O)N[C@@H](CC(C)C)C(=O)N[C@@H](CO[C@@H]1O[C@H](CO)[C@@H](O)[C@H](O)[C@H]1O)C(N)=O)C(C)C)C(C)C [CRA 3014]
784 | 68 | 91 | 0.04 | 34.2 | 223 | 99 | 0.28 | 6.52 | ~23 | CCC[C@H](NC(=O)[C@H](CCC(N)=O)NC(=O)[C@H](CCCCN)NC(=O)[C@H](CCCNC(=N)N)NC(=O)[C@H](Cc1ccc(O)cc1)NC(=O)[C@H](CCCNC(=N)N)NC(=O)[C@H](CO)NC(=O)[C@H](Cc1ccc(O)cc1)NC(=O)[C@H](CO)NC(=O)[C@H](CC(=O)O)NC(=O)[C@@H](NC(=O)[C@H](Cc1ccccc1)NC(=O)[C@@H](NC(=O)C(C)(C)NC(=O)[C@H](CC(=O)O)NC(=O)[C@@H](CO)NC(=O)[C@@H](N)Cc1c[nH]cn1)[C@@H](C)CC)[C@@H](C)O)C(=O)N[C@@H](C)C(=O)N[C@H](C(=O)N[C@@H](CCCCN)C(=O)N[C@@H](CCCCN)C(=O)N[C@@H](Cc1ccc(O)cc1)C(=O)N[C@@H](CC(C)C)C(=O)N[C@@H](C)C(=O)N[C@@H](C)C(=O)N[C@H](C(=O)N[C@@H](CC(C)C)C(=O)N[C@@H](CO[C@@H]1O[C@H](CO)[C@@H](O)[C@H](O)[C@H]1O)C(N)=O)C(C)C)C(C)C [CRA3011]

SMILES | EC50 (human PAC1 receptor) [nM] | Emax (human PAC1 receptor) [%] | Emax (human VPAC1 receptor) [%] | Receptor selectivity ratio VPAC1/PAC1 (human VPAC1 receptor) | EC50 (human VPAC1 receptor) [nM] | EC50 (human VPAC2 receptor) [nM] | Emax (human VPAC2 receptor) [%] | Receptor selectivity ratio VPAC2/PAC1 (human VPAC2 receptor) | Receptor selectivity ratio VPAC2/VPAC1 (human VPAC2 receptor) | Selectivity for VPAC1 over PAC1 (human VPAC1 receptor; from cAMP EC50 values) [fold]
CC[C@H](C)[C@H](NC(=O)CNC(=O)[C@H](CC(=O)O)NC(=O)[C@H](CO)NC(=O)[C@@H](N)Cc1c[nH]cn1)C(=O)N[C@@H](Cc1ccccc1)C(=O)N[C@H](C(=O)N[C@@H](CC(=O)O)C(=O)N[C@@H](CO)C(=O)N[C@@H](Cc1ccc(O)cc1)C(=O)N[C@@H](CO)C(=O)N[C@@H](CCCNC(=N)N)C(=O)N[C@@H](Cc1ccc(O)cc1)C(=O)N[C@@H](CCCNC(=N)N)C(=O)N[C@@H](CCCCN)C(=O)N[C@@H](CCC(N)=O)C(=O)N[C@@H](CC(C)C)C(=O)N[C@@H](C)C(=O)N[C@H](C(=O)N[C@@H](CCCCN)C(=O)N[C@@H](CCCCN)C(=O)N[C@@H](Cc1ccc(O)cc1)C(=O)N[C@@H](CC(C)C)C(=O)N[C@@H](C)C(=O)N[C@@H](C)C(=O)N[C@H](C(=O)N[C@@H](CC(C)C)C(=O)N[C@@H](CO[C@@H]1O[C@H](CO[C@H]2O[C@H](CO)[C@H](O)[C@H](O)[C@H]2O)[C@@H](O)[C@H](O)[C@H]1O)C(N)=O)C(C)C)C(C)C)[C@@H](C)O [Compound 2LS98Mel] | 0.57 | 99 | 102 | 0.96 | 0.55 | 9.4 | 86 | 16.49 | 17.09 | 
